# Biological target: T1, human PAD4 (Homo sapiens, UniProt Q9UM07)
# T1 construct: human PAD4 (NM_012387), A2P663, was PCR amplified; His-SUMO (N, cleaved yes); made in house; host or cells: E. coli BL21(DE3)
# Test: In vitro PAD4 BAEE biochemical assay
# Settings: human PAD4, BAEE substrate; 5 nM PAD4, 2 mM calcium chloride, 3 mM BAEE; geometric mean of multiple experiments
# Method in brief: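 Ammonia release from BAEE deimination monitored by o-phthalaldehyde amine coupling (1 h, 25 °C) after EDTA stop. Final conditions: 5 nM tag-free recombinant human PAD4 (E. coli), 2 mM CaCl2, 3 mM BAEE, pH 7.6 MOPS with DTT; 30 min compound preincubation, then 2 h reaction at 25 °C.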
# T1 sequence (Q9UM07 2-663): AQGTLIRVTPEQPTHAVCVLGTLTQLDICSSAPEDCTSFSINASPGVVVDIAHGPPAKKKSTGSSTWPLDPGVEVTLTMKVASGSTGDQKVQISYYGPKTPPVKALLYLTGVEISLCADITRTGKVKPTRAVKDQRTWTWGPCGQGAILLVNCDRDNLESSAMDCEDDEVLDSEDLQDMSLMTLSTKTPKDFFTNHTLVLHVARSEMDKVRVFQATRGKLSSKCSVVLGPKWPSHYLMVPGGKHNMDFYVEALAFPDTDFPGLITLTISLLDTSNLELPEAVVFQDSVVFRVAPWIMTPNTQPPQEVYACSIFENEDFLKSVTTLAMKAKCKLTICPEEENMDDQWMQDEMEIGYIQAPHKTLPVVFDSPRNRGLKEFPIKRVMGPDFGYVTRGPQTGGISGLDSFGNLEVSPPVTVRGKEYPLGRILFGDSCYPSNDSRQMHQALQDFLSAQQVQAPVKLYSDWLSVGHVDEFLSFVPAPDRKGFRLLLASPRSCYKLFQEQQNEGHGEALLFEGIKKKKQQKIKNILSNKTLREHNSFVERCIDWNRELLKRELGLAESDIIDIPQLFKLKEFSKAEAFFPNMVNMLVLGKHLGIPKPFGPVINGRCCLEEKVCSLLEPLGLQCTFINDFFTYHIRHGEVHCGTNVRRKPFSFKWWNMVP
row,SMILES,IC50
1,"COc1cc(C(=O)N2[C@H]3CC[C@@H]2[C@H](N)C3)cc2nc(-c3cc4ccc([C@@H](C)NC(=O)NCc5ncccn5)nc4n3CC3CC3)c(C)n12 [Example 224, 1-[(1~{R})-1-[2-[7-[(1~{R},2~{R},4~{S})-2-amino-7-azabicyclo[2.2.1]heptane-7-carbonyl]-5-methoxy-3-methylimidazo [1,2-a]pyridin-2-yl]-1-(cyclopropylmethyl)pyrrolo [2,3-b]pyridin-6-yl]ethyl]-3-(pyrimidin-2-ylmethyl)urea]",31.5 nM
2,"COc1cc(C(=O)N2[C@H]3CC[C@@H]2[C@H](N)C3)cc2nc(-c3cc4ccc([C@@H](C)NC(=O)N5CC(C(N)=O)C5)nc4n3CC3CC3)c(C)n12 [Example 225, 1-~{N}-[(1~{R})-1-[2-[7-[(1~{R},2~{R},4~{S})-2-amino-7-azabicyclo[2.2.1]heptane-7-carbonyl]-5-methoxy-3-methylimidazo [1,2-a]pyridin-2-yl]-1-(cyclopropylmethyl)pyrrolo [2,3-b]pyridin-6-yl]ethyl]azetidine-1,3-dicarboxamide]",81.3 nM
3,"COc1cc(C(=O)N2[C@H]3CC[C@@H]2[C@H](N)C3)cc2nc(-c3cc4ccc([C@@H](C)NC(=O)NCc5cccnc5)nc4n3CC3CC3)c(C)n12 [Example 226, 1-[(1~{R})-1-[2-[7-[(1~{R},2~{R},4~{S})-2-amino-7-azabicyclo[2.2.1]heptane-7-carbonyl]-5-methoxy-3-methylimidazo [1,2-a]pyridin-2-yl]-1-(cyclopropylmethyl)pyrrolo [2,3-b]pyridin-6-yl]ethyl]-3-(pyridin-3-ylmethyl)urea]",42.3 nM
4,"COc1cc(C(=O)N2[C@H]3CC[C@@H]2[C@H](N)C3)cc2nc(-c3cc4ccc([C@@H](C)NC(=O)N5CC(O)C5)nc4n3CC3CC3)c(C)n12 [Example 227, ~{N}-[(1~{R})-1-[2-[7-[(1~{R},2~{R},4~{S})-2-amino-7-azabicyclo[2.2.1]heptane-7-carbonyl]-5-methoxy-3-methylimidazo [1,2-a]pyridin-2-yl]-1-(cyclopropylmethyl)pyrrolo [2,3-b]pyridin-6-yl]ethyl]-3-hydroxyazetidine-1-carboxamide]",65.2 nM
5,COc1cc(C(=O)N2[C@H]3CC[C@@H]2[C@H](N)C3)cc2nc(-c3cc4ccc([C@@H](C)NC(=O)N5CCC(C(=O)O)C5)nc4n3CC3CC3)c(C)n12 (stereo partly drawn) [Example 228],48.6 nM
6,"COc1cc(C(=O)N2[C@H]3CC[C@@H]2[C@H](N)C3)cc2nc(-c3cc4ccc([C@@H](C)NC(=O)NC5COC5)nc4n3CC3CC3)c(C)n12 [Example 229, 1-[(1~{R})-1-[2-[7-[(1~{R},2~{R},4~{S})-2-amino-7-azabicyclo[2.2.1]heptane-7-carbonyl]-5-methoxy-3-methylimidazo [1,2-a]pyridin-2-yl]-1-(cyclopropylmethyl)pyrrolo [2,3-b]pyridin-6-yl]ethyl]-3-(oxetan-3-yl)urea]",108 nM
7,"COc1cc(C(=O)N2[C@H]3CC[C@@H]2[C@H](N)C3)cc2nc(-c3cc4ccc([C@@H](C)NC(=O)N5CC(C)(C(=O)O)C5)nc4n3CC3CC3)c(C)n12 [Example 230, 1-[[(1~{R})-1-[2-[7-[(1~{R},2~{R},4~{S})-2-amino-7-azabicyclo[2.2.1]heptane-7-carbonyl]-5-methoxy-3-methylimidazo [1,2-a]pyridin-2-yl]-1-(cyclopropylmethyl)pyrrolo [2,3-b]pyridin-6-yl]ethyl]carbamoyl]-3-methylazetidine-3-carboxylic acid]",70 nM
8,"COc1cc(C(=O)N2[C@H]3CC[C@@H]2[C@H](N)C3)cc2nc(-c3cc4ccc([C@@H](C)NC(=O)NC5CCOC5)nc4n3CC3CC3)c(C)n12 (stereo partly drawn) [Example 231, 1-[(1~{R})-1-[2-[7-[(1~{R},2~{R},4~{S})-2-amino-7-azabicyclo[2.2.1]heptane-7-carbonyl]-5-methoxy-3-methylimidazo [1,2-a]pyridin-2-yl]-1-(cyclopropylmethyl)pyrrolo [2,3-b]pyridin-6-yl]ethyl]-3-(oxolan-3-yl)urea]",64.2 nM
9,"COc1cc(C(=O)N2[C@H]3CC[C@@H]2[C@H](N)C3)cc2nc(-c3cc4ccc([C@@H](C)NC(=O)N5CC(F)(F)C5)nc4n3CC3CC3)c(C)n12 [Example 232, N—((R)-1-(2-(7-((1R,2R,4S)-2-amino-7-azabicyclo[2.2.1]heptane-7-carbonyl)-5-methoxy-3-methylimidazo[1,2-a]pyridin-2-yl)-1-(cyclopropylmethyl)-1H-pyrrolo[2,3-b]pyridin-6-yl)ethyl)-3,3-difluoroazetidine-1-carboxamide]",68.5 nM
10,"COc1cc(C(=O)N2[C@H]3CC[C@@H]2[C@H](N)C3)cc2nc(-c3cc4ccc([C@@H](C)NC(=O)NCc5ccccc5)nc4n3CC3CC3)c(C)n12 [Example 233, 1-[(1~{R})-1-[2-[7-[(1~{R},2~{R},4~{S})-2-amino-7-azabicyclo[2.2.1]heptane-7-carbonyl]-5-methoxy-3-methylimidazo [1,2-a]pyridin-2-yl]-1-(cyclopropylmethyl)pyrrolo [2,3-b]pyridin-6-yl]ethyl]-3-benzylurea]",103 nM
11,"COc1cc(C(=O)N2[C@H]3CC[C@@H]2[C@H](N)C3)cc2nc(-c3cc4ccc([C@@H](C)NC(=O)N5CC(C#N)C5)nc4n3CC3CC3)c(C)n12 [Example 234, ~{N}-[(1~{R})-1-[2-[7-[(1~{R},2~{R},4~{S})-2-amino-7-azabicyclo[2.2.1]heptane-7-carbonyl]-5-methoxy-3-methylimidazo [1,2-a]pyridin-2-yl]-1-(cyclopropylmethyl)pyrrolo [2,3-b]pyridin-6-yl]ethyl]-3-cyanoazetidine-1-carboxamide]",149 nM
12,"COc1cc(C(=O)N2[C@H]3CC[C@@H]2[C@H](N)C3)cc2nc(-c3cc4ccc([C@@H](C)NC(=O)N5CCN(C)CC5)nc4n3CC3CC3)c(C)n12 [Example 235, ~{N}-[(1~{R})-1-[2-[7-[(1~{R},2~{R},4~{S})-2-amino-7-azabicyclo[2.2.1]heptane-7-carbonyl]-5-methoxy-3-methylimidazo [1,2-a]pyridin-2-yl]-1-(cyclopropylmethyl)pyrrolo [2,3-b]pyridin-6-yl]ethyl]-4-methylpiperazine-1-carboxamide]",63.6 nM
13,"COc1cc(C(=O)N2[C@H]3CC[C@@H]2[C@H](N)C3)cc2nc(-c3cc4ccc([C@@H](C)NC(=O)N(C(C)C)C(C)C)nc4n3CC3CC3)c(C)n12 [Example 236, 3-[(1~{R})-1-[2-[7-[(1~{R},2~{R},4~{S})-2-amino-7-azabicyclo[2.2.1]heptane-7-carbonyl]-5-methoxy-3-methylimidazo [1,2-a]pyridin-2-yl]-1-(cyclopropylmethyl)pyrrolo [2,3-b]pyridin-6-yl]ethyl]-1,1-di(propan-2-yl)urea]",55.6 nM
14,COc1cc(C(=O)N2[C@H]3CC[C@@H]2[C@H](N)C3)cc2nc(-c3cc4ccc([C@@H](C)NC(=O)N5CC(C(=O)O)C5)nc4n3CC3CC3)c(C)n12 [Example 237],35.6 nM
15,"COc1cc(C(=O)N2[C@H]3CC[C@@H]2[C@H](N)C3)cc2nc(-c3cc4ccc([C@@H](C)NC(=O)Nc5c(C)cccc5C)nc4n3CC3CC3)c(C)n12 [Example 238, 1-[(1~{R})-1-[2-[7-[(1~{R},2~{R},4~{S})-2-amino-7-azabicyclo[2.2.1]heptane-7-carbonyl]-5-methoxy-3-methylimidazo [1,2-a]pyridin-2-yl]-1-(cyclopropylmethyl)pyrrolo [2,3-b]pyridin-6-yl]ethyl]-3-(2,6-dimethylphenyl)urea]",145 nM

# Reference: patent US12240862B2, “Inhibitors of peptidylarginine deiminases” (Gilead Sciences, Inc., priority 2020, dated 2025)
